From patent publication US20240374558A1, “PREPARATION OF PHENE[…] […] STEREOISOMERS THEREOF AND PRECURSORS THEREOF” (priority 2022, published 2024)
Entries after “also recorded” stand apart in the source; their conditions may differ. Where a name gives a salt, the structure may show the parent alone.

Tests used:
[1] = target: T1, Kc4.3/ChIP2 (Homo sapiens, UniProt Q9UK17); assay: hKv4.3/hKChIP2 Potassium Channel Assay, Qube APC; format: cell-based; details: Antagonist mode; HEK-Kv4.3/KChIP2; test compound
T1 construct: host or cells: HEK
T1 sequence (Q9UK17 1-655): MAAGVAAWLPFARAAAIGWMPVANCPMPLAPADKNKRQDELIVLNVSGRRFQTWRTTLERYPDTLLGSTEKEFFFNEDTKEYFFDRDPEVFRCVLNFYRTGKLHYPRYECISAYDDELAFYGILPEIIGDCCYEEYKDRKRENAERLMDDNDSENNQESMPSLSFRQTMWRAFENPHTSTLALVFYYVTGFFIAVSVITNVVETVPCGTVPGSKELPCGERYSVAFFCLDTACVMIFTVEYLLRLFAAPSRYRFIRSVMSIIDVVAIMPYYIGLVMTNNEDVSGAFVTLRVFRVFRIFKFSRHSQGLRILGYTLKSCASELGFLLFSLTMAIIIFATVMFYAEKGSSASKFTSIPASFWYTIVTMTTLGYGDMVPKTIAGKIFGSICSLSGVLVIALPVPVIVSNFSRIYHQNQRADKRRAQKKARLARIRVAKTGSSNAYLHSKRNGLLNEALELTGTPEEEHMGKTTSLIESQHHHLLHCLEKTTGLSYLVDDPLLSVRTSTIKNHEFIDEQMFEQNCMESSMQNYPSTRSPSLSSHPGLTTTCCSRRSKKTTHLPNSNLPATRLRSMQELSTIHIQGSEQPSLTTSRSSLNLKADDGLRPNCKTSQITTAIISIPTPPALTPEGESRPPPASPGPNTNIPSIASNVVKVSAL
T1 sequence (Q9NS61 1-270 partner): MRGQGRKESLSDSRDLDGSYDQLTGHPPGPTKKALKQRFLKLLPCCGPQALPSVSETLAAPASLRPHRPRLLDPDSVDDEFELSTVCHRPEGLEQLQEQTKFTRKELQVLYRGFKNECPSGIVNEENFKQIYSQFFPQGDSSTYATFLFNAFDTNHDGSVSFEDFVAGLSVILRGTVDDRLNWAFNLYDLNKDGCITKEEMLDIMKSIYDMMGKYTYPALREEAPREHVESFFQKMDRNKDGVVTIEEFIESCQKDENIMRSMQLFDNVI
Description: Electrophysiological assays were conducted to profile three compounds ((R)-methylone, (S)-methylone, or racemic methylone) for activities on the ion channel targets specified below using the Qube electrophysiological platform. Where presented, IC50 values were determined by a non-linear, least squares regression analysis. Reference standards were run as an integral part of each assay to ensure the validity of the results obtained.
Ion Channels tested were Eurofins Panel Part Number: CPROFullQB2DR Voltage-Gated Sodium: HEK-Nav1.5 (Peak), HEK-Nav1.5 (Late, Antagonist) Voltage-Gated Potassium: HEK-Kv4.3/KChIP2, CHO-hERG, CHO-KCNQ1/minK Voltage-Gated Calcium: HEK-Cav1.2 Inward-Rectifying Voltage-Gated Potassium: HEK-Kir2.1.
Methods employed in this study have been developed and validated with reliability and reproducibility by Eurofins. Assays were performed under conditions below. [0217] hNavL.5 Sodium Channel Assay—Qube APC Onset and steady state block of peak Nay1.5 current is measured using a pulse pattern, repeated every 5 sec, consisting of a hyperpolarizing pulse to −120 mV for a 200 ms duration, depolarization to −15 mV amplitude for a 40 ms duration, followed by step to 40 mV for 200 ms and finally a 100 ms ramp (1.2 V/s) to a holding potential of −80 mV. Peak current is measured during the step to −15 mV. […] Onset and steady state block of hKv4.3 current is measured using a pulse pattern from −80 mV to 40 mV amplitude for a 110 ms duration, and finally a 100 ms ramp (1.2 V/s) to −80 mV. […] [0220] hNav1.5 Late Current Sodium Channel Assay—Qube APC Onset and steady state block of Late Nay1.5 current is measured using a pulse pattern, repeated every 5 sec, consisting of a hyperpolarizing pulse to −120 mV for a 200 ms duration, depolarization to −15 mV amplitude for a 40 ms duration, followed by step to 40 mV for 200 ms and finally a 100 ms ramp (1.2 V/s) to a holding potential of −80 mV. Late current is measured as charge current elicited during the ramp with 50 nM ATXII.

[2] = tested on: rat forced swim test (FST); assay: Rat forced swim test (FST); format: in vivo; details: single dose 10 mg/kg, IP, 30 min before testing
Description: The forced swim test (FST) is a classic model to assess the antidepressant-like activity of compounds that has been in use for over 40 years (Porsolt et al. (1977) Nature 266:730-732; Detke et al. (1995) Psychopharmacology 121:66-72). […] A single dose of 5 mg/kg methylone reduces immobility by approximately 50% compared to vehicle-treated controls, whereas a 15 mg/kg dose reduces immobility by nearly 100%. Accompanying changes in climbing and/or swimming behavior reflect noradrenergic and serotonergic activities of methylone, respectively.
All FST studies are performed and scored by an experimenter blind to treatment group and according to standard protocols. Briefly, rats are placed in a circular plexiglass container filled with water. Water temperature is maintained at 22-25° C. and changed for every animal. Day 1 (Training) consists of a 15 min acclimation trial, and Day 2 (Testing, 24 h later) consists of the 5 min test. A time sampling procedure is employed where animals are observed every 5 seconds for the duration of the test session (60 counts or 5 minutes) and scored for immobility (defined as the failure to struggle), swimming (defined as a circular movement around the tank), or climbing (defined as an upwards escape behavior). Data are expressed as the percent of the testing session (e.g., the number of immobility counts divided by 60). A p-value less than 0.05 indicates statistical significance after typical statistical analyses (e.g., unpaired t-test or ANOVA).
To determine that the prodrug and/or enantiomer has an antidepressant-like effect and to compare it to methylone, rats are treated with each compound 30 min prior to testing. Additional tests are run 24, 72, 168 hours post-dose or longer. Effects on Fear Extinction in a Model of Post-Traumatic Stress Disorder (PTSD)
Racemic methylone (10 mg/kg, IP) has a maximal antidepressant-like effect in the rat forced swim test (FST), reducing immobility by nearly 100% compared to vehicle treated controls. […]

| SMILES | Estimated IC50 [1] | antidepressant-like effect (immobility) compared to vehicle ([2]; 10 mg/kg) | antidepressant-like effect (immobility) compared to vehicle [2] |
| --- | --- | --- | --- |
| CN[C@@H](C)C(=O)c1ccc2c(c1)OCO2 [(S)-methylone] | N/C (N/C indicates observed mean inhibition was <25%) | Mimics the Rapid and Robust Antidepressant-like Activity of Racemic Methylone; also recorded: mimicked the rapid and robust antidepressant-like effect of racemic methylone | – |
| CNC(C)C(=O)c1ccc2c(c1)OCO2 (centres unmarked) [Methylone HCl, methylone HCl] | N/C (N/C indicates observed mean inhibition was <25%) | – | – |
| CN[C@H](C)C(=O)c1ccc2c(c1)OCO2 [(R)-methylone] | N/C (N/C indicates observed mean inhibition was <25%) | – | no effect |
